In patent US7049321B2, “Methods and pharmaceutical compositions for treatment of central and peripheral nervous system disorders and compounds useful therefor” (Israel Institute for Biological Research, priority 2002, dated 2006):
“Also recorded” adds a separate entry of the source.

What was measured:
[1] = test system: Rat pheochromocytoma cells transfected with M1 mAChR; assay: Neurite outgrowth response; format: cell-based; details: for Emax: Rattus norvegicus, read-out: Maximal response, percent of cells with neurites
Experimental: Rat pheochromocytoma cells transfected with M1 mAChR cells were grown as described in Gurwitz et al, (NeuroReport 6, 485,1995). For determination of neurite outgrowth, cells plated in six-well plates were used 3–5 days after-plating. Growth factors were added 1 day after plating and muscarinic agonists were added for the last 24 hrs.
Cells were observed under an inverted microscope. The percent of cells with neurite longer than cell diameter were scored in three random fields of several hundred cells from each well. Results were expressed as a percent of cells with neurites. Treatments were performed in triplicate cells. Both NGF (50 ng/ml) and EGF (100 ng/ml) were added 1 day after plating. Muscarinic agonists were added 24 hours before scoring.

M1 mAChR = target: T1, M1 mAChR (Rattus norvegicus, UniProt P08482); assay: α-APPs secretion in cell cultures stably transfected with the M1 mAChR; format: cell-based; details: for Emax: read-out: α-APPs secretion, % of maximal response of carbachol
T1 construct: expressed in transfected cells; elsewhere rat pheochromocytoma cells
T1 sequence (P08482 1-460): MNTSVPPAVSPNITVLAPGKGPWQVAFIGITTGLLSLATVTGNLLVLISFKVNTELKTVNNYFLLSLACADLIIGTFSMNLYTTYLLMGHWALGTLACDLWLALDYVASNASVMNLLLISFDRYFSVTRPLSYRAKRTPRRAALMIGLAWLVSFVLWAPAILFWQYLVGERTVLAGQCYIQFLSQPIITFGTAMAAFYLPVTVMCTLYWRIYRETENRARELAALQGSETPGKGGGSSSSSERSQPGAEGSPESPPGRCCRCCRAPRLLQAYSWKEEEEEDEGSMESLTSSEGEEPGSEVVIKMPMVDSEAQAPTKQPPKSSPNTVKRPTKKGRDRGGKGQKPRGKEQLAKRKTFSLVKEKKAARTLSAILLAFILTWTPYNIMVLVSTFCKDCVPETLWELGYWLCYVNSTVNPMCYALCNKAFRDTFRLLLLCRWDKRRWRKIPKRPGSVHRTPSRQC
Experimental: Cells were plated in 6 well culture plates and used at the age of 3–5 days after plating. […] Cells exposed to medium alone are referred as controls.
Cell supernatants were collected into Eppendorff tubes containing a cocktail of protease inhibitors (5 units/ml aprotinin, […], […] and 10^−4M Phenylmethylsulfonylfluoride (PMSF, a protease inhibitor); Sigma, USA). The collected media were concentrated with Centricon tubes (Amicon, Beverly, Mass., USA) and kept frozen for α-APPs secretion determination. Equal amounts of protein (50–100 μg) were loaded and separated on 10% sodium dodecyl sulfate-polyacrylamide gel electrophoresis (SDS-PAGE). Followed by western blotting onto nitrocellulose membrane, blocked by fat-free milk, and probed for 24 hours at 4° C., with anti-Alzheimer's precursor protein, A4 monoclonal antibody 22C11 (0.25 μg/ml; Boehringer Mannheim, Germany). The nitrocellulose membranes were washed and incubated for 2 hours at room temperature with peroxidase-linked goat anti-mouse IgG antibodies (Jackson Immunoresearch, USA), followed by extensive washout and staining with enhanced chemiluminescence detection system (Amersham). Quantitative evaluation of the immunoreactive bands, on the exposed films, was performed by video-imaging densitometry (Gel-aid software; Galai Co., Israel). APPs levels were expressed as x-fold increase over basal levels.

[2] = test system: Rat pheochromocytoma cells transfected with M1 mAChR; format: cell-based; details: for Cell death induced by β-A25-35: β-A25-35 (1 μM), 24 hrs, serum-deprived
Experimental: Confluent rat pheochromocytoma cells transfected with the M1 mAChR cultures were detached with trypsin, washed and plated in 24-well, 6-well, 60-mm or 100-mm plates that were precoated with rat tail collagen (Sigma, Israel). Several experiments were performed in serum-free medium. For 3-(4,5-dimethylthiazol-2-yl)-2,5-diphenyl-tetrazolium bromide (MTT) assay, cells (1.5×10^4) were plated in 96-well collagen-precoated plates, in serum-free medium, with or without various drugs for 24 hours. For differentiation, cells were grown in the presence of 1% FCS and 1% HS, with addition of 50 ng/ml NGF for 7 days, to cause full differentiation. […] After 7 days, cells were washed and the medium was either replaced to serum-free, or cells were detached and replated in serum-free medium. Cells in serum-free medium were treated either with Aβ peptides that were previously “aged” or with H2O2. Tested compounds were added together with the insults for the indicated time, unless otherwise stated.
Cells were plated in 96-well plates in 100 μl medium. After exposure to various treatments, 10 μl of 5 mg/ml MTT [3-(4,5-dimethylthiazol-2-yl)-2,5-diphenyl-tetrazolium bromide; Sigma, Israel] solution in phosphate-buffered saline (PBS) was added to each well. Plates were incubated for 2 hrs at 37° C. followed by hydrocholoric acid-isopropanol addition (100 μl of 0.04N HCl/isopropanol). Plates were read using ELISA reader at a wavelength of 570 nm.
The MTT assay measures primary early changes within the cells, reflecting the integrity of the electron transport chain and provides a readout of cellular redox activity. This test is a specific, early indicator of the mechanism of β-amyloid-mediated cell death and can be used to detect rapid inhibitory response.

trihexyphenidyl rats = assay: Passive avoidance in trihexyphenidyl-treated rats; format: in vivo, Wistar rats; details: for Retention latency: 24 h; for Effect on passive avoidance: AF292 0.03, 0.05, 0.1, 0.3, 0.5 mg/kg p.o., AF267B 0.5, 1, 5; for MED: p.o.
Excerpt: Trihexyphenidyl is a selective M1 muscarinic antagonist that crosses the blood brain barrier and induces memory and learning impairments (Bymaster et al. J Pharmacol Exp Ther 267: 16–24, 1993. Roldan et al Neurosci. Lett. 230: 93–96, 1997; Kimura et al Brain Res. 834: 6–12, 1999).
Naive Wistar rats were used in the experiments below. The passive avoidance (PA) task is comprised of training (acquisition) phase and a retention phase. In the training procedure each rat was individually placed in the small illuminated compartment and after 60 sec. of familiarization/adaptation, the door to the large compartment was opened and the latency to enter was measured (Initial Latency). Immediately following entry into the dark compartment, the door was closed and inescapable foot shock (0.6 mA for 3 sec) was delivered through the grid floor. A cutoff point of 180 sec was used for initial latency. […] After the acquisition trial the rat was returned to its home cage. Retention of the passive avoidance task was measured 24 h later, by again placing the rat in the light compartment and after a 60 sec adaptation interval, the door was opened and the latency to re-enter the dark compartment was measured. A cutoff point of 300 sec was used for retention latency.

[3] = Pharmacokinetic study in rats; format: in vivo; details: rat; for biovailability in rats: in vivo; for AUC(0-inf) / Cmax / MRT / Tmax / half-life: plasma, Rats
Excerpt: The results of the PK profile of AF292 in rats and Beagle dogs (overnight fasting; drug administered in water solution; gavage) are listed in Table 1.

[4] = test system: cells transfected with M1 mAChR; assay: Protection from H2O2-induced toxicity; format: cell-based, rat
[5] = oral, extrapolated for 10 mg/kg

| Structure (SMILES) | Emax [1] | Emax (M1 mAChR) | Cell death induced by β-A25-35 [2] | biovailability in rats [3] | Protection from H2O2-induced toxicity [4] | EC50 (M1 mAChR) | MTT assay against Aβ 25–35 & H2O2 in cell cultures transfected with rat M1 mAChR [2] | Effect on passive avoidance (trihexyphenidyl rats) | MED (trihexyphenidyl rats) | further results |
| --- | --- | --- | --- | --- | --- | --- | --- | --- | --- | --- |
| CC1=NCC2(CCN(C)CC2)S1 [AF150(S), 2,8-Dimethyl-1-thia-3,8-diaza-spiro[4.5]dec-2-ene] | 30% | 50% | significantly attenuated | 31% | protect the cells | – | – | – | – | Retention latency (trihexyphenidyl rats; 5 mg/kg p.o.): 222 ± 25.6 s |
| CC[C@@H]1SC2(CCN(C)CC2)NC1=O [AF267B, (S)-2-ethyl-8-methyl-1-thia-4,8-diaza-spiro[4.5]decan-3-one] | 60% | 100% | significantly attenuated | – | protect the cells | 3 µM | 100% | 0.5, 1, 5 positive effects | MED 0.1–0.5 mg/kg, p.o. | α-APPs secretion, % of maximal response of carbachol (M1 mAChR): equal to maximal response of carbachol; α-APPs secretion, fold increase over control (M1 mAChR; 10^−4M, maximal increase): about 6 fold; Retention latency (trihexyphenidyl rats; 0.5 mg/kg p.o.): 181.1 ± 35.4 s; Retention latency (trihexyphenidyl rats; 1 mg/kg p.o.): 290.1 ± 8.5 s; AUC(0-inf) [3, 5]: 1550 ng·h/mL; Cmax [3, 5]: 1700 ng/mL; AUC(0-inf) ([3]; po, 5 mg/kg): 773 ng·h/mL; Cmax ([3]; po, 5 mg/kg): 852 ng/mL; MRT ([3]; po, 5 mg/kg): 60 min; Tmax ([3]; po, 5 mg/kg): 15 min; half-life ([3]; po, 5 mg/kg): 38.4 min |
| CC[C@@H]1SC2(CCNCC2)NC1=O [AF292, (S)-2-Ethyl-1-thia-4,8-diaza-spiro[4.5]decan-3-one] | – | 100% | significantly attenuated | 49% | protect the cells | 3 µM | Equipotent with AF267B & CCh at 100 μM; Even | positive effects | < 0.03 mg/kg | Neurotrophic effect ([1]; blocked by atropine): neurotrophic; α-APPs secretion, comparison in words (M1 mAChR): as effective as AF267B; also recorded: Equipotent with AF267B &; Duration of action (trihexyphenidyl rats; rat, in vivo): LONG DURATION OF ACTION; Potency among the tested agonists (trihexyphenidyl rats; rat, in vivo): most potent compound among the tested agonists; AUC(0-inf) ([3]; po, 10 mg/kg): 2150 ng·h/mL; Cmax ([3]; po, 10 mg/kg): 1910 ng/mL; MRT ([3]; po, 10 mg/kg): 90 min; Tmax ([3]; po, 10 mg/kg): 30 min; half-life ([3]; po, 10 mg/kg): 59.4 min |
